Source: PubChem BioAssay (NCI)
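In this assay, cells in 96-well plates receive the compound at five concentrations for 48 hours. Endpoints are linearly interpolated between the surrounding concentrations. The concentration for full growth arrest is given as TGI.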

What was measured:
Assay in all cases: NCI anticancer screen, dose series, 48 h
786-0 renal = tested on: 786-0 renal
SNB-75 CNS = tested on: SNB-75 CNS
MDA-N = tested on: MDA-N
MDA-MB-435 = tested on: MDA-MB-435
NCI-H460 lung = tested on: NCI-H460 lung
MDA-MB-231 breast = tested on: MDA-MB-231 breast
NCI-H522 lung = tested on: NCI-H522 lung
MALME-3M melanoma = tested on: MALME-3M melanoma
OVCAR-5 ovarian = tested on: OVCAR-5 ovarian
SK-MEL-5 melanoma = tested on: SK-MEL-5 melanoma
TK-10 renal = tested on: TK-10 renal
PC-3 prostate = tested on: PC-3 prostate
A549 NSCLC = tested on: A549 NSCLC
HS 578T breast = tested on: HS 578T breast
CCRF-CEM leukemia = tested on: CCRF-CEM leukemia
OVCAR-4 ovarian = tested on: OVCAR-4 ovarian
OVCAR-3 ovarian = tested on: OVCAR-3 ovarian
UO-31 renal = tested on: UO-31 renal
SW-620 colon = tested on: SW-620 colon
KM12 colon = tested on: KM12 colon
HCC-2998 colon = tested on: HCC-2998 colon
M14 melanoma = tested on: M14 melanoma
SF-295 CNS = tested on: SF-295 CNS
HCT-15 colon = tested on: HCT-15 colon
A498 renal = tested on: A498 renal
NCI-H23 lung = tested on: NCI-H23 lung
UACC-257 melanoma = tested on: UACC-257 melanoma
RPMI-8226 leukemia = tested on: RPMI-8226 leukemia
HOP-92 NSCLC = tested on: HOP-92 NSCLC
NCI-H226 lung = tested on: NCI-H226 lung
U251 CNS = tested on: U251 CNS
T-47D breast = tested on: T-47D breast
SF-539 CNS = tested on: SF-539 CNS
HOP-62 NSCLC = tested on: HOP-62 NSCLC
K-562 leukemia = tested on: K-562 leukemia
LOX IMVI melanoma = tested on: LOX IMVI melanoma
MOLT-4 leukemia = tested on: MOLT-4 leukemia
RXF 393 renal = tested on: RXF 393 renal
SF-268 CNS = tested on: SF-268 CNS
SK-MEL-2 melanoma = tested on: SK-MEL-2 melanoma
SK-OV-3 ovarian = tested on: SK-OV-3 ovarian
IGROV1 ovarian = tested on: IGROV1 ovarian
SNB-19 CNS = tested on: SNB-19 CNS
MCF7 breast = tested on: MCF7 breast
HL-60(TB) leukemia = tested on: HL-60(TB) leukemia
UACC-62 melanoma = tested on: UACC-62 melanoma
EKVX NSCLC = tested on: EKVX NSCLC
DU-145 prostate = tested on: DU-145 prostate
CAKI-1 renal = tested on: CAKI-1 renal
BT-549 breast = tested on: BT-549 breast
SN12C renal = tested on: SN12C renal
SR leukemia = tested on: SR leukemia
OVCAR-8 ovarian = tested on: OVCAR-8 ovarian
NCI/ADR-RES ovarian = tested on: NCI/ADR-RES ovarian
ACHN renal = tested on: ACHN renal
SK-MEL-28 melanoma = tested on: SK-MEL-28 melanoma
HCT-116 colon = tested on: HCT-116 colon
COLO 205 colon = tested on: COLO 205 colon
HT29 colon = tested on: HT29 colon

COc1cc2c3cc1Oc1c(O)c(OC)cc4c1[C@H](Cc1ccc(cc1)Oc1cc(ccc1O)C[C@H]3N(C)CC2)N(C)CC4
TGI (786-0 renal): 21.7 µM | TGI (SNB-75 CNS): 43 µM | TGI (MDA-N): 24.7 µM | TGI (MDA-MB-435): 27.1 µM | TGI (NCI-H460 lung): 26.8 µM | TGI (MDA-MB-231 breast): 22.8 µM | TGI (NCI-H522 lung): 27 µM | TGI (MALME-3M melanoma): 36.8 µM | TGI (OVCAR-5 ovarian): 58.6 µM | TGI (SK-MEL-5 melanoma): 16.6 µM | TGI (TK-10 renal): 48.6 µM | TGI (PC-3 prostate): 27.1 µM | TGI (A549 NSCLC): 39.6 µM | TGI (HS 578T breast): 64.9 µM | TGI (CCRF-CEM leukemia): 42.7 µM | TGI (OVCAR-4 ovarian): 48 µM | TGI (OVCAR-3 ovarian): 28.5 µM | TGI (UO-31 renal): 44.8 µM | TGI (SW-620 colon): 57.3 µM | TGI (KM12 colon): 23.7 µM | TGI (HCC-2998 colon): 22.8 µM | TGI (M14 melanoma): 5.62 µM | TGI (SF-295 CNS): 31.3 µM | TGI (HCT-15 colon): 59.5 µM | TGI (A498 renal): 31.5 µM | TGI (NCI-H23 lung): 51.8 µM | TGI (UACC-257 melanoma): 33.9 µM | TGI (RPMI-8226 leukemia): 20 µM | TGI (HOP-92 NSCLC): 39.4 µM | TGI (NCI-H226 lung): 58.8 µM | TGI (U251 CNS): 28 µM | TGI (T-47D breast): 46.1 µM | TGI (SF-539 CNS): 10.9 µM | TGI (HOP-62 NSCLC): 43.8 µM | TGI (K-562 leukemia): 17.6 µM | TGI (LOX IMVI melanoma): 17.8 µM | TGI (MOLT-4 leukemia): > 43.8 µM | TGI (RXF 393 renal): 13.9 µM | TGI (SF-268 CNS): 47.3 µM | TGI (SK-MEL-2 melanoma): 25.6 µM | TGI (SK-OV-3 ovarian): 79.3 µM | TGI (IGROV1 ovarian): 36.1 µM | TGI (SNB-19 CNS): 55.1 µM | TGI (MCF7 breast): 44.4 µM | TGI (HL-60(TB) leukemia): 33.9 µM | TGI (UACC-62 melanoma): 33.4 µM | TGI (EKVX NSCLC): 48.1 µM | TGI (DU-145 prostate): 37.5 µM | TGI (CAKI-1 renal): 86.3 µM | TGI (BT-549 breast): 28.4 µM | TGI (SN12C renal): 34.6 µM | TGI (SR leukemia): 9.15 µM | TGI (OVCAR-8 ovarian): 37.3 µM | TGI (NCI/ADR-RES ovarian): 78.4 µM | TGI (ACHN renal): 61 µM | TGI (SK-MEL-28 melanoma): 39.2 µM | TGI (HCT-116 colon): 22.4 µM | TGI (COLO 205 colon): 28.5 µM | TGI (HT29 colon): 18.5 µM

COc1ccc(N(C(=O)Nc2ccc(Cl)c(Cl)c2)c2ccccc2)cc1
TGI (786-0 renal): > 10 µM | TGI (MDA-N): > 10 µM | TGI (MDA-MB-435): > 10 µM | TGI (NCI-H460 lung): > 10 µM | TGI (MDA-MB-231 breast): > 10 µM | TGI (NCI-H522 lung): > 10 µM | TGI (MALME-3M melanoma): > 10 µM | TGI (OVCAR-5 ovarian): > 10 µM | TGI (SK-MEL-5 melanoma): > 10 µM | TGI (TK-10 renal): > 10 µM | TGI (PC-3 prostate): > 10 µM | TGI (A549 NSCLC): > 10 µM | TGI (HS 578T breast): > 10 µM | TGI (CCRF-CEM leukemia): > 10 µM | TGI (OVCAR-4 ovarian): > 10 µM | TGI (OVCAR-3 ovarian): > 10 µM | TGI (UO-31 renal): > 10 µM | TGI (SW-620 colon): > 10 µM | TGI (KM12 colon): > 10 µM | TGI (HCC-2998 colon): > 10 µM | TGI (M14 melanoma): > 10 µM | TGI (SF-295 CNS): > 10 µM | TGI (HCT-15 colon): > 10 µM | TGI (A498 renal): > 10 µM | TGI (NCI-H23 lung): > 10 µM | TGI (UACC-257 melanoma): > 10 µM | TGI (HOP-92 NSCLC): > 10 µM | TGI (NCI-H226 lung): > 10 µM | TGI (U251 CNS): > 10 µM | TGI (T-47D breast): > 10 µM | TGI (SF-539 CNS): > 10 µM | TGI (HOP-62 NSCLC): > 10 µM | TGI (K-562 leukemia): > 10 µM | TGI (LOX IMVI melanoma): > 10 µM | TGI (MOLT-4 leukemia): > 10 µM | TGI (RXF 393 renal): > 10 µM | TGI (SF-268 CNS): > 10 µM | TGI (SK-OV-3 ovarian): > 10 µM | TGI (IGROV1 ovarian): > 10 µM | TGI (SNB-19 CNS): > 10 µM | TGI (MCF7 breast): > 10 µM | TGI (HL-60(TB) leukemia): > 10 µM | TGI (UACC-62 melanoma): > 10 µM | TGI (EKVX NSCLC): > 10 µM | TGI (DU-145 prostate): > 10 µM | TGI (CAKI-1 renal): > 10 µM | TGI (BT-549 breast): > 10 µM | TGI (SN12C renal): > 10 µM | TGI (SR leukemia): > 10 µM | TGI (OVCAR-8 ovarian): > 10 µM | TGI (NCI/ADR-RES ovarian): > 10 µM | TGI (ACHN renal): > 10 µM | TGI (SK-MEL-28 melanoma): > 10 µM | TGI (HCT-116 colon): > 10 µM | TGI (COLO 205 colon): > 10 µM | TGI (HT29 colon): > 10 µM
